Measurements from PubChem BioAssay (NCI).
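Five concentrations, 48 hours, 96-well plates. GI50: concentration for 50% inhibition of growth. Definition used: TGI = concentration required for complete inhibition of growth.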

Assays:
Experiment in all cases: NCI tumour cell line growth inhibition, 48 h
KM12 colon = test system: KM12 colon
NCI-H522 lung = test system: NCI-H522 lung
HOP-92 NSCLC = test system: HOP-92 NSCLC
786-0 renal = test system: 786-0 renal
UO-31 renal = test system: UO-31 renal
A549 NSCLC = test system: A549 NSCLC
HL-60(TB) leukemia = test system: HL-60(TB) leukemia
CAKI-1 renal = test system: CAKI-1 renal
A498 renal = test system: A498 renal
NCI-H226 lung = test system: NCI-H226 lung
OVCAR-5 ovarian = test system: OVCAR-5 ovarian
OVCAR-4 ovarian = test system: OVCAR-4 ovarian
M14 melanoma = test system: M14 melanoma
NCI/ADR-RES ovarian = test system: NCI/ADR-RES ovarian
MALME-3M melanoma = test system: MALME-3M melanoma
COLO 205 colon = test system: COLO 205 colon
ACHN renal = test system: ACHN renal
SF-539 CNS = test system: SF-539 CNS
SF-268 CNS = test system: SF-268 CNS
TK-10 renal = test system: TK-10 renal
HOP-62 NSCLC = test system: HOP-62 NSCLC
SN12C renal = test system: SN12C renal
CCRF-CEM leukemia = test system: CCRF-CEM leukemia
HS 578T breast = test system: HS 578T breast
HCT-116 colon = test system: HCT-116 colon
RPMI-8226 leukemia = test system: RPMI-8226 leukemia
HT29 colon = test system: HT29 colon
DU-145 prostate = test system: DU-145 prostate
UACC-62 melanoma = test system: UACC-62 melanoma
T-47D breast = test system: T-47D breast
OVCAR-8 ovarian = test system: OVCAR-8 ovarian
SW-620 colon = test system: SW-620 colon
RXF 393 renal = test system: RXF 393 renal
HCT-15 colon = test system: HCT-15 colon
MDA-MB-231 breast = test system: MDA-MB-231 breast
NCI-H23 lung = test system: NCI-H23 lung
UACC-257 melanoma = test system: UACC-257 melanoma
PC-3 prostate = test system: PC-3 prostate
MCF7 breast = test system: MCF7 breast
SF-295 CNS = test system: SF-295 CNS
EKVX NSCLC = test system: EKVX NSCLC
HCC-2998 colon = test system: HCC-2998 colon
MOLT-4 leukemia = test system: MOLT-4 leukemia
OVCAR-3 ovarian = test system: OVCAR-3 ovarian
SK-MEL-5 melanoma = test system: SK-MEL-5 melanoma
SK-MEL-2 melanoma = test system: SK-MEL-2 melanoma
MDA-MB-435 = test system: MDA-MB-435
SNB-19 CNS = test system: SNB-19 CNS
NCI-H460 lung = test system: NCI-H460 lung
SNB-75 CNS = test system: SNB-75 CNS
IGROV1 ovarian = test system: IGROV1 ovarian
SK-MEL-28 melanoma = test system: SK-MEL-28 melanoma
BT-549 breast = test system: BT-549 breast
SK-OV-3 ovarian = test system: SK-OV-3 ovarian
U251 CNS = test system: U251 CNS
SR leukemia = test system: SR leukemia
K-562 leukemia = test system: K-562 leukemia
LOX IMVI melanoma = test system: LOX IMVI melanoma

With `O=C(Nc1nccs1)NS(=O)(=O)n1cnc2ccccc21` the TGI (KM12 colon) was > 100 µM, the TGI (NCI-H522 lung) was > 100 µM and the TGI (HOP-92 NSCLC) was > 100 µM. The TGI (786-0 renal) was > 100 µM, the TGI (UO-31 renal) was > 100 µM and the TGI (A549 NSCLC) was > 100 µM. The TGI (HL-60(TB) leukemia) was > 100 µM, the TGI (CAKI-1 renal) was > 100 µM and the TGI (A498 renal) was > 100 µM. The TGI (NCI-H226 lung) was > 100 µM, the TGI (OVCAR-5 ovarian) was > 100 µM and the TGI (OVCAR-4 ovarian) was > 100 µM. The TGI (M14 melanoma) was > 100 µM, the TGI (NCI/ADR-RES ovarian) was > 100 µM and the TGI (MALME-3M melanoma) was > 100 µM. For the same molecule, the TGI (COLO 205 colon) was > 100 µM, the TGI (ACHN renal) was > 100 µM and the TGI (SF-539 CNS) was > 100 µM. The TGI (SF-268 CNS) was > 100 µM, the TGI (TK-10 renal) was > 100 µM and the TGI (HOP-62 NSCLC) was > 100 µM. For the same molecule, the TGI (SN12C renal) was > 100 µM, the TGI (CCRF-CEM leukemia) was > 100 µM and the TGI (HS 578T breast) was > 100 µM. For the same molecule, the TGI (HCT-116 colon) was > 100 µM, the TGI (RPMI-8226 leukemia) was > 100 µM and the TGI (HT29 colon) was > 100 µM. For the same molecule, the TGI (DU-145 prostate) was > 100 µM, the TGI (UACC-62 melanoma) was > 100 µM and the TGI (T-47D breast) was > 100 µM. For the same molecule, the TGI (OVCAR-8 ovarian) was > 100 µM, the TGI (SW-620 colon) was > 100 µM and the TGI (RXF 393 renal) was > 100000 nM. The TGI (HCT-15 colon) was > 100 µM, the TGI (MDA-MB-231 breast) was > 100 µM and the TGI (NCI-H23 lung) was > 100 µM. For the same molecule, the TGI (UACC-257 melanoma) was > 100 µM, the TGI (PC-3 prostate) was > 100 µM and the TGI (MCF7 breast) was > 100 µM. The TGI (SF-295 CNS) was > 100 µM, the TGI (EKVX NSCLC) was > 100 µM and the TGI (HCC-2998 colon) was > 100 µM. The TGI (MOLT-4 leukemia) was > 100 µM, the TGI (OVCAR-3 ovarian) was > 100 µM and the TGI (SK-MEL-5 melanoma) was > 100 µM. For the same molecule, the TGI (SK-MEL-2 melanoma) was > 100 µM, the TGI (MDA-MB-435) was > 100 µM and the TGI (SNB-19 CNS) was > 100 µM. For the same molecule, the TGI (NCI-H460 lung) was > 100 µM, the TGI (SNB-75 CNS) was > 100000 nM and the TGI (IGROV1 ovarian) was > 100 µM. For the same molecule, the TGI (SK-MEL-28 melanoma) was > 100 µM, the TGI (BT-549 breast) was > 100 µM and the TGI (SK-OV-3 ovarian) was > 100 µM. For the same molecule, the TGI (U251 CNS) was > 100 µM.
With `C[C@@]1(O)CCC[C@H]1n1c(=O)c(C(F)F)cc2cnc(NC3CCN(S(C)(=O)=O)CC3)nc21` the GI50 (SR leukemia) was 1960 nM, the TGI (SR leukemia) was > 100 µM and the GI50 (KM12 colon) was 1800 nM. The TGI (KM12 colon) was > 100 µM, the GI50 (NCI-H522 lung) was 2660 nM and the TGI (NCI-H522 lung) was 15.3 µM. For the same molecule, the GI50 (HOP-92 NSCLC) was 2040 nM, the TGI (HOP-92 NSCLC) was 6.8 µM and the GI50 (786-0 renal) was 1900 nM. For the same molecule, the TGI (786-0 renal) was > 100 µM, the GI50 (UO-31 renal) was 1200 nM and the TGI (UO-31 renal) was 3.97 µM. The GI50 (A549 NSCLC) was 1660 nM, the TGI (A549 NSCLC) was > 100 µM and the GI50 (HL-60(TB) leukemia) was 1140 nM. For the same molecule, the TGI (HL-60(TB) leukemia) was 5.38 µM, the GI50 (CAKI-1 renal) was 3.45 µM and the TGI (CAKI-1 renal) was > 100 µM. The GI50 (OVCAR-5 ovarian) was 1210 nM, the TGI (OVCAR-5 ovarian) was > 100 µM and the GI50 (OVCAR-4 ovarian) was 1760 nM. The TGI (OVCAR-4 ovarian) was > 100 µM, the GI50 (M14 melanoma) was 1750 nM and the TGI (M14 melanoma) was 7.62 µM. The GI50 (NCI/ADR-RES ovarian) was 12.7 µM, the TGI (NCI/ADR-RES ovarian) was > 100 µM and the GI50 (MALME-3M melanoma) was 1290 nM. For the same molecule, the TGI (MALME-3M melanoma) was 5.37 µM, the GI50 (ACHN renal) was 1370 nM and the TGI (ACHN renal) was > 100 µM. For the same molecule, the GI50 (SF-539 CNS) was 1170 nM, the TGI (SF-539 CNS) was 3.45 µM and the GI50 (SF-268 CNS) was 2070 nM. The TGI (SF-268 CNS) was 7.34 µM, the GI50 (TK-10 renal) was 1210 nM and the TGI (TK-10 renal) was > 100 µM. For the same molecule, the GI50 (HOP-62 NSCLC) was 2030 nM, the TGI (HOP-62 NSCLC) was > 100 µM and the GI50 (K-562 leukemia) was 1960 nM. For the same molecule, the TGI (K-562 leukemia) was > 100 µM, the GI50 (SN12C renal) was 2660 nM and the TGI (SN12C renal) was > 100 µM. For the same molecule, the GI50 (CCRF-CEM leukemia) was 1500 nM, the TGI (CCRF-CEM leukemia) was > 100 µM and the GI50 (HS 578T breast) was 1480 nM. The TGI (HS 578T breast) was 7.28 µM, the GI50 (HCT-116 colon) was 1050 nM and the TGI (HCT-116 colon) was > 100 µM. It also gave a GI50 (RPMI-8226 leukemia) of 1110 nM, a TGI (RPMI-8226 leukemia) of 8.64 µM and a GI50 (HT29 colon) of 1270 nM. The TGI (HT29 colon) was > 100 µM, the GI50 (DU-145 prostate) was 2180 nM and the TGI (DU-145 prostate) was 54.7 µM. For the same molecule, the GI50 (UACC-62 melanoma) was 1040 nM, the TGI (UACC-62 melanoma) was 3.31 µM and the GI50 (T-47D breast) was 1290 nM. For the same molecule, the TGI (T-47D breast) was > 100 µM, the GI50 (OVCAR-8 ovarian) was 2110 nM and the TGI (OVCAR-8 ovarian) was > 100 µM. For the same molecule, the GI50 (SW-620 colon) was 89.1 nM, the TGI (SW-620 colon) was 6.46 µM and the GI50 (RXF 393 renal) was 1240 nM. The TGI (RXF 393 renal) was 2900 nM, the GI50 (HCT-15 colon) was 1740 nM and the TGI (HCT-15 colon) was 56.6 µM. The GI50 (MDA-MB-231 breast) was 1140 nM, the TGI (MDA-MB-231 breast) was 7.04 µM and the GI50 (NCI-H23 lung) was 1430 nM. The TGI (NCI-H23 lung) was 6.69 µM, the GI50 (UACC-257 melanoma) was 2310 nM and the TGI (UACC-257 melanoma) was 22.8 µM. For the same molecule, the GI50 (PC-3 prostate) was 2100 nM, the TGI (PC-3 prostate) was > 100 µM and the GI50 (SF-295 CNS) was 1830 nM. It also gave a TGI (SF-295 CNS) of 16.2 µM, a GI50 (EKVX NSCLC) of 1750 nM and a TGI (EKVX NSCLC) of 5.92 µM. For the same molecule, the GI50 (HCC-2998 colon) was 539 nM, the TGI (HCC-2998 colon) was > 100 µM and the GI50 (SK-MEL-5 melanoma) was 1150 nM. For the same molecule, the TGI (SK-MEL-5 melanoma) was 7.91 µM, the GI50 (SK-MEL-2 melanoma) was 2280 nM and the TGI (SK-MEL-2 melanoma) was 6.34 µM. The GI50 (LOX IMVI melanoma) was 1280 nM, the TGI (LOX IMVI melanoma) was > 100 µM and the GI50 (MDA-MB-435) was 1400 nM. The TGI (MDA-MB-435) was 9.01 µM, the GI50 (SNB-19 CNS) was 1340 nM and the TGI (SNB-19 CNS) was 16.8 µM. For the same molecule, the GI50 (NCI-H460 lung) was 109 nM, the TGI (NCI-H460 lung) was 11.9 µM and the GI50 (SNB-75 CNS) was 223 nM. For the same molecule, the TGI (SNB-75 CNS) was 2380 nM, the GI50 (IGROV1 ovarian) was 1380 nM and the TGI (IGROV1 ovarian) was 43.7 µM. The GI50 (SK-MEL-28 melanoma) was 2060 nM, the TGI (SK-MEL-28 melanoma) was 10.9 µM and the GI50 (BT-549 breast) was 1940 nM. The TGI (BT-549 breast) was 9.39 µM, the GI50 (U251 CNS) was 1670 nM and the TGI (U251 CNS) was > 100 µM.
